PMC10657973 (Journal of Pharmaceutical Analysis, 2023)
“Also recorded” adds a separate entry of the source.

Columns and labels:
[1] = tested on: OAT1/3-MRP4 double-transfected MDCK cells; assay: Transcellular transport in OAT1/3-MRP4 double-transfected MDCK cells; assay type: cell-based
[2] = tested on: rMRP4; assay type: in vivo, rats
[3] = tested on: HSA; settings: 4% HSA, about 100 μM UT, 37 °C, 2 h; cited from earlier work
[4] = tested on: serum protein; assay: Protein-binding ratio of UTs in rat serum; assay type: in vitro ADME, rats; settings: ultrafiltration at 37 °C
[5] = tested on: MRP4; assay: Intracellular accumulation of UTs in MRP4-overexpressing cells; assay type: cell-based, human; settings: 100 μM, 30 min; for intracellular accumulation in MRP4-overexpressing cells vs control cells: 37 °C, 4 mM ATP
[6] = tested on: rOATs; assay: rOATs inhibition experiment
[7] = tested on: rMRP4; assay type: in vivo, rats; settings: rat, in vivo
[8] = tested on: rOAT1/3; assay: rOAT1/3−/− rat experiment; assay type: in vivo, rats; settings: for renal elimination in rOAT1/3−/− rats: Fig. S7F
[9] = Correlation between biomarkers and cefmetazole pharmacokinetics in rats; assay type: in vivo; settings: PROB 60 and 120 mg/kg 7 days; cefmetazole 100 mg/kg i.v.
[10] = target: T1, OAT1 (Homo sapiens, UniProt Q4U2R8); assay: Uptake of UTs in HEK293T-OAT1 cells; assay type: cell-based; settings: 100 μM, 30 min; for uptake of free UT in OAT1-overexpressing cells vs control cells: without HSA
T1 sequence (Q4U2R8 1-563): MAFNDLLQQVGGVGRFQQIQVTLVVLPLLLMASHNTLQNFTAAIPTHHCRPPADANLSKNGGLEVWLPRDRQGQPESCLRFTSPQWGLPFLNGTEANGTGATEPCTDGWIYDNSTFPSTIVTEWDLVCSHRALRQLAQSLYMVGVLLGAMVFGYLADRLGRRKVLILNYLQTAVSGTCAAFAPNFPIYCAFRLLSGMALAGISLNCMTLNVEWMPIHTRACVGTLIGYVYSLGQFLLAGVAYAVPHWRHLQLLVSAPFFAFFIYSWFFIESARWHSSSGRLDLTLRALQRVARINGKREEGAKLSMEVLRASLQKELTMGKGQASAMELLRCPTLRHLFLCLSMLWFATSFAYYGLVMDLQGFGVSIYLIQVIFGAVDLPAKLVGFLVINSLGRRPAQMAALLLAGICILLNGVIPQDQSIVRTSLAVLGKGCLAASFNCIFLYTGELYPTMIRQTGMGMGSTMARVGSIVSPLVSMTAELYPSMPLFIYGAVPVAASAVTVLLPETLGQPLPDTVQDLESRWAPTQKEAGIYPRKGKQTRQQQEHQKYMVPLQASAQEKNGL

[11] = target: T2, OAT3 (Homo sapiens, UniProt Q8TCC7); assay: Uptake of UTs in HEK293T-OAT3 cells; assay type: cell-based; settings: 100 μM, 30 min; for uptake of HSA-bound UT in OAT3-overexpressing cells vs control cells / uptake of free UT in OAT3-overexpressing cells vs control cells: 37 °C; for uptake of HSA-bound UT in OAT3-overexpressing cells vs control cells: with HSA; for uptake of free UT in OAT3-overexpressing cells vs control cells: without HSA
T2 sequence (Q8TCC7 1-542): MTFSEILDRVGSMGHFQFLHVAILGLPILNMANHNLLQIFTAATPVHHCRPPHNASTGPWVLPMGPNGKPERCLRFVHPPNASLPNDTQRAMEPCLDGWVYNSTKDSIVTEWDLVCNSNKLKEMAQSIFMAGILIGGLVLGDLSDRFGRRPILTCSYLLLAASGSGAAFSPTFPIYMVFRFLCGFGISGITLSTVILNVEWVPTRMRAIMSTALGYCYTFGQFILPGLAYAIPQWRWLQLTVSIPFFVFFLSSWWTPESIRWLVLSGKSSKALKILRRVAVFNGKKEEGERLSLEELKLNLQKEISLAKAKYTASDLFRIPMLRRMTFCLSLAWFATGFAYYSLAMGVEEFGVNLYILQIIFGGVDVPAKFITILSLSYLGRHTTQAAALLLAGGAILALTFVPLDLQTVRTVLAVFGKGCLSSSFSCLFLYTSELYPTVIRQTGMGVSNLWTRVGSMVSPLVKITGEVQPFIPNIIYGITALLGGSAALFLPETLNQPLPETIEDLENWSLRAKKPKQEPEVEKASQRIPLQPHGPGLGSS

[12] = target: T1, OAT1; assay: Transport kinetics of UTs in HEK293T-OAT1 cells; assay type: cell-based; settings: HEK293T-OAT1/3 cells, 100 μM
[13] = assay type: in vivo, rats; settings: rats
[14] = tested on: OAT1/3 and MRP4 double-transfected MDCK cells
[15] = tested on: OAT4; assay: Specificity: uptake in OAT4-overexpressing cells; assay type: cell-based
[16] = substrate: O=C(O)c1cc(=O)c2ccccc2[nH]1; assay: Transport kinetics of UTs in HEK293T-OAT1 cells; assay type: cell-based, human; settings: other: HEK293T-OAT1, Michaelis-Menten
[17] = substrate: CCCc1oc(CCC(=O)O)c(C(=O)O)c1C; assay: Transport kinetics of UTs in HEK293T-OAT1 cells; assay type: cell-based, human; settings: other: HEK293T-OAT1, Michaelis-Menten
[18] = PROB 30, 60, 120 mg/kg oral, 7 days

## CN(C)C(=O)CCSC(SCCC(=O)O)c1cccc(/C=C/c2ccc3ccc(Cl)cc3n2)c1 (stereo not shown) [MK-571, reference compound]
[1]
  effect on B to A transmembrane transport of CMPF: substantially inhibited
  effect on B−A transport of kynurenic acid: significantly reduced
[2]; rats, 20 mg/kg oral, 7 days
  serum creatinine and urea nitrogen levels: significantly increased
[2]; rats, different doses, H&E staining
  pathological changes in the kidneys: No significant pathological changes

## CN(C)c1nc2c(ncn2[C@@H]2O[C@H](CO)[C@@H](O)[C@H]2O)c(=O)[nH]1 [N, N-dimethylguanosine, N,N-dimethylguanosine]
[3]
  Protein-binding ratio, HSA binding in vitro (%) (n = 3): below 50%
[4]
  Protein-binding ratio, Normal rats in vivo (%) (n = 6): less than 24%

## CC(=O)N[C@@H](CCCN=C(N)N)C(=O)O [N-acetyl-L-arginine]
[5]
  intracellular accumulation in MRP4-overexpressing cells vs control cells: significantly decreased

## CCCN(CCC)S(=O)(=O)c1ccc(C(=O)O)cc1 [PROB, probenecid, reference compound]
[6]; rats, H&E staining
  histological structure of kidney: unchanged

## CN1CC(=O)NC1=N [Creatinine, creatinine]
[7]
  renal clearance rate in rMRP4−/− rats vs WT: not significantly altered
  renal uptake ratio in rMRP4−/− rats vs WT: not significantly altered
  serum levels in rMRP4−/− rats vs WT: not significantly altered
[3]
  Protein-binding ratio, HSA binding in vitro (%) (n = 3): below 50%
[4]
  Protein-binding ratio, Normal rats in vivo (%) (n = 6): less than 24%
[8]
  renal elimination in rOAT1/3−/− rats: unaffected
[9]
  plasma concentrations in rats treated with PROB: did not change significantly

## O=C(O)c1cc(=O)[nH]c(=O)[nH]1 [Orotic acid, orotic acid]
[3]
  Protein-binding ratio, HSA binding in vitro (%) (n = 3): below 50%
[4]
  Protein-binding ratio, Normal rats in vivo (%) (n = 6): less than 24%

## CCCc1oc(CCC(=O)O)c(C(=O)O)c1C [CMPF, 3-carboxy-4-methyl-5-propyl-2-furanpropanoic acid]
[7]
  renal clearance rate in rMRP4−/− rats vs WT: did not change significantly
  renal tissue concentration in rMRP4−/− rats vs WT: significantly elevated
  serum levels in rMRP4−/− rats vs WT: did not change significantly
[10]; 4 °C
  uptake at 4 °C in OAT1-overexpressing cells vs control: not significantly different
[10]; 37 °C, with HSA
  uptake of HSA-bound UT in OAT1-overexpressing cells vs control cells: dramatically increased
[10]; 37 °C
  uptake of free UT in OAT1-overexpressing cells vs control cells: dramatically increased; also recorded: markedly higher
[6]; 12 h urine
  cumulative urinary excretion in rats treated with PROB vs control: no significant effects
[6]; [18]
  renal uptake ratios in rats treated with PROB vs control: decreased
  serum levels in rats treated with PROB vs control: increased
[11]; 4 °C
  uptake at 4 °C in OAT3-overexpressing cells vs control: not significantly different
[11]
  uptake of HSA-bound UT in OAT3-overexpressing cells vs control cells: dramatically increased
  uptake of free UT in OAT3-overexpressing cells vs control cells: dramatically increased; also recorded: markedly higher
[12]
  linear uptake time: 0 to 10 min
[5]; 4 °C
  uptake at 4 °C in MRP4-overexpressing cells vs control: not significantly different
[5]
  intracellular accumulation in MRP4-overexpressing cells vs control cells: significantly decreased
[13]; MK-571 20 mg/kg
  renal excretion with MK-571 vs control: did not affect
[13]; PROB 60 mg/kg
  renal excretion with PROB vs control: did not affect
[14]; 4 °C
  uptake at 4 °C in OAT1/3 and MRP4 double-transfected cells: no significant difference
[14]; 37 °C
  uptake at 37 °C in OAT1-MRP4 cells vs double control cells: significantly increased
  uptake at 37 °C in OAT3-MRP4 cells vs double control cells: significantly increased
[2]; MK-571 5, 10, 20 mg/kg oral, 7 days
  levels in renal tissues in rats treated with MK-571 vs control: significantly increased
[2]; MK-571 (CMPF effect at 20 mg/kg)
  cumulative urinary excretion in rats treated with MK-571 vs control: significantly decreased
[4]
  Protein-binding ratio, Normal rats in vivo (%) (n = 6): > 90%
[8]; rat, in vivo
  renal clearance rate in rOAT1/3−/− rats vs WT: significantly decreased
  renal tissue uptake ratio in rOAT1/3−/− rats vs WT: significantly decreased
  serum levels in rOAT1/3−/− rats vs WT: significantly increased
[15]
  transport mediated by OAT4 / uptake in OAT4-overexpressing cells vs control: significantly higher

## O=C(O)c1cc(O)c2cccc(O)c2n1 [xanthurenic, xanthurenic acid]
[10]; 37 °C
  uptake of free UT in OAT1-overexpressing cells vs control cells: mediated by OAT1 and OAT3
[6]; rats / in vivo
  serum level in vivo (detectability by LC-MS/MS): below the lowest detection limit
[11]
  uptake of free UT in OAT3-overexpressing cells vs control cells: mediated by OAT1 and OAT3
[5]
  intracellular accumulation in MRP4-overexpressing cells vs control cells: efflux by MRP4

## O=c1[nH]cc([C@@H]2O[C@H](CO)[C@@H](O)[C@H]2O)c(=O)[nH]1 [Pseudouridine, pseudouridine]
[3]
  Protein-binding ratio, HSA binding in vitro (%) (n = 3): below 50%
[4]
  Protein-binding ratio, Normal rats in vivo (%) (n = 6): less than 24%

## O=C(O)CNC(=O)c1ccccc1 [Hippuric acid, hippuric acid]
[6]; [18]
  serum levels in rats treated with PROB vs control: no significant change
[11]
  uptake of HSA-bound UT in OAT3-overexpressing cells vs control cells: dramatically increased
  uptake of free UT in OAT3-overexpressing cells vs control cells: dramatically increased
[5]
  intracellular accumulation in MRP4-overexpressing cells vs control cells: slightly decreased
[8]
  renal elimination in rOAT1/3−/− rats: substantially inhibited

B1: OAT1 (Homo sapiens) (protein)
chain: MAFNDLLQQVGGVGRFQQIQVTLVVLPLLLMASHNTLQNFTAAIPTHHCRPPADANLSKNGGLEVWLPRDRQGQPESCLRFTSPQWGLPFLNGTEANGTGATEPCTDGWIYDNSTFPSTIVTEWDLVCSHRALRQLAQSLYMVGVLLGAMVFGYLADRLGRRKVLILNYLQTAVSGTCAAFAPNFPIYCAFRLLSGMALAGISLNCMTLNVEWMPIHTRACVGTLIGYVYSLGQFLLAGVAYAVPHWRHLQLLVSAPFFAFFIYSWFFIESARWHSSSGRLDLTLRALQRVARINGKREEGAKLSMEVLRASLQKELTMGKGQASAMELLRCPTLRHLFLCLSMLWFATSFAYYGLVMDLQGFGVSIYLIQVIFGAVDLPAKLVGFLVINSLGRRPAQMAALLLAGICILLNGVIPQDQSIVRTSLAVLGKGCLAASFNCIFLYTGELYPTMIRQTGMGMGSTMARVGSIVSPLVSMTAELYPSMPLFIYGAVPVAASAVTVLLPETLGQPLPDTVQDLESRWAPTQKEAGIYPRKGKQTRQQQEHQKYMVPLQASAQEKNGL
[16]
  Km: 496.7 µM
[17]
  Km: 1,483 μM
  Vmax: 323 pmol/mg protein/min
